{
  "source": "patent US20140357688A1",
  "about": "“METHOD FOR INHIBITING EZH2 EXPRESSION IN BREAST CANCER CELLS” (Yung Shin Pharm. Ind. Co., Ltd., priority 2013, published 2014)",
  "type_in_all_cases": "cell-based, human",
  "key": {"Akt": {"system": "Akt", "assay": "Western blot of Akt activation", "settings": "3 μM YC-1", "experimental": "(A) MDA-MB-468 cells were incubated with 3 μM YC-1 for indicated time. Cells were harvested for the detection of phospho-Akt (Ser473), Akt, and PCNA. (B) Cells were pretreated with LY294002 (LY, 10 μM) for 1 h followed by 3 μM YC-1 induction for 6 h. (C) MDA-MB-468 cells were incubated with 3 μM YC-1 for indicated time. Cells were harvested for the detection of phospho-CDK1 (Thr161), CDK1, phospho-EZH2 ([…]), EZH2, and β-actin expression with western blot analysis. Levels of EZH2 phosphorylation were calculated by phospho-EZH2 normalized by total EZH2. (D) Cells were treated with YC-1 for 6 h in the absence or presence of roscovitine (Rosc, 20 μM). Cells were harvested and analyzed by western blotting for protein expression. (E) CDK1 knockdown of MDA-MB-468 cells were induced with 3 μM YC-1 for 4 h and followed by western blot analysis.\nCells were lysed in PBS containing proteinase inhibitor and phosphatase inhibitors and sonication. Protein concentration was measured using the Bio-Rad protein assay kit (Bio-Rad Laboratories, Hercules, Calif., USA). Lysate protein was separated by electrophoresis of SDS-PAGE and transferred to Immobilon P membrane (EMD Millipore). […] The band intensities were analyzed and quantified by the Multi Gauge software (Fuji Photo Film)."}, "MDA-MB-468 cells": {"system": "MDA-MB-468 cells", "assay": "Cell cycle analysis by flow cytometry", "settings": "3 μM YC-1, 6 h post-treatment", "experimental": "(A) Cells were treated with indicated concentration of YC-1 for 6, 24, and 48 h. Cell viability was determined by MTT method. (B) MDA-MB-468 cells were treated with 3 μM YC-1 for 0, 6, and 12 h, and then stained with fluorescence diacetate (FDA) and propidium iodide (PI). Cell morphology was assessed by fluorescence microscopy with magnification ×20 (upper 3 rows) or ×40 (lowest row). (C) MDA-MB-468 cells were treated with 3 μM YC-1 for 24 h, cells were lysed and subjected to western blot analysis described in Materials and Methods. β-actin is a loading control. Blots were representative of results from three independent experiments. (D) Cells were treated with vehicle (DMSO, as control) or 3 μM YC-1 for 6 h. The cell cycles were analyzed by flow cytometry. (E) Cells were treated with indicated concentration of YC-1 and then performed with clonogenic assay.\nCells (1×10^6) treated with YC-1 were fixed in cold 70% ethanol overnight. Cells were stained with staining solution (0.5% Triton X-100, 2 mg/ml propidium iodide, 1 mg/ml RNase A in 1×PBS), followed by analysis on a FACSCalibur flow cytometer (BD Biosciences, Mountain View, Calif., USA)."}, "Bmi1": {"system": "Bmi1", "assay": "Western blot of PRC1 components in MDA-MB-468 cells", "experimental": "(§1) (A)(B) Cells were treated with indicated concentration of YC-1 for 24 h (A) or 3 μM of YC-1 for indicated time (B). Cells were harvested and performed with western blotting analysis. […] The levels of protein expression were quantitated and shown under blots. (C) Cells were transfected with EZH2 shRNA for 0, 1, 2, 3, and 4 days and collected for determination of cell viability (left) and protein expression (right). (D)(E) After 4 days of EZH2 knockdown, cells were incubated with 3 μM YC-1 for 4 h and detected cell viability (D) and protein contents (E). (F) Tumor specimens were isolated and protein was extracted for western blot analysis.\n(§2) Cells were lysed in PBS containing proteinase inhibitor and phosphatase inhibitors and sonication. Protein concentration was measured using the Bio-Rad protein assay kit (Bio-Rad Laboratories, Hercules, Calif., USA). Lysate protein was separated by electrophoresis of SDS-PAGE and transferred to Immobilon P membrane (EMD Millipore). The membranes were incubated with appropriate primary antibodies and horseradish peroxidase-conjugated secondary antibodies (EMD Millipore). The signaling was visualized using Chemiluminescence substrate kit (EMD Millipore) and collected by the Luminesence image analyzer, LAS4000 (Fuji Photo Film Co., Tokyo, Japan). The band intensities were analyzed and quantified by the Multi Gauge software (Fuji Photo Film)."}, "Ring1B": {"system": "Ring1B", "assay": "Western blot of PRC1 components in MDA-MB-468 cells", "experimental": "as §1, §2"}, "Ring1A": {"system": "Ring1A", "assay": "Western blot of PRC1 components in MDA-MB-468 cells", "experimental": "as §1, §2"}, "c-Cbl": {"system": "c-Cbl", "assay": "Western blot of c-Cbl phosphorylation and expression", "experimental": "(A) c-Cbl knockdown MDA-MB-468 cells were treated with 3 μM YC-1 for 4 h. Cell were harvested for detection of protein expression. (B) Cells were treated with 3 μM YC-1 for indicated time. Cells were collected and c-Cbl phosphorylation was detected. […] (D) Cells were pretreated with MG-132 and followed by 3 μM YC-1 induction for indicated time. Cells were harvested and lysed for immunoprecipitation assay. The association between c-Cbl and EZH2 were determined by western blotting analysis and probed with anti-EZH2 or anti-c-Cbl antibody. Membranes were stripped and reprobed with anti-c-Cbl or anti-EZH2 antibody to check the input. […] Then cells were collected and lysate protein was subjected for the detection of the c-Cbl-EZH2 complexes. Cells were lysed in PBS containing proteinase inhibitor and phosphatase inhibitors and sonication. Protein concentration was measured using the Bio-Rad protein assay kit (Bio-Rad Laboratories, Hercules, Calif., USA). Lysate protein was separated by electrophoresis of SDS-PAGE and transferred to Immobilon P membrane (EMD Millipore). The membranes were incubated with appropriate primary antibodies and horseradish peroxidase-conjugated secondary antibodies (EMD Millipore). The signaling was visualized using Chemiluminescence substrate kit (EMD Millipore) and collected by the Luminesence image analyzer, LAS4000 (Fuji Photo Film Co., Tokyo, Japan). The band intensities were analyzed and quantified by the Multi Gauge software (Fuji Photo Film)."}, "Ras": {"system": "Ras", "assay": "Ras activation (Raf-RBD pull-down)", "settings": "3 μM YC-1", "experimental": "(A) Cells were pretreated with DMSO (as control), Bay-43-9006 (Bay, 10 μM), farnyesyl thiosalicylic acid (FTS, 10 μM), Src inhibitor I (SrcI, 10 μM), and genistein (Gen, 10 μM), then followed by YC-1 (3 μM) incubation for 6 h. Cells were harvested and lysed for western blot analysis (left, right) and cell viability (middle). The levels of protein expression were quantitated and shown under blots. (B) MDA-MB-468 cells were transfected with shRNA of Raf-1 or Src. After stimulation of 3 μM YC-1 for 4 h, cell protein was subjected to western blot analysis. (C) Cells were incubated with 3 μM YC-1 for indicated time and then lysed for detection of Src, Raf-1, and MEK activation by using specific anti-phosphorylated antibodies. (D) Cells were treated with 3 μM YC-1 for indicated time. Cells were lysed and detected Ras activation by using Raf-RBD conjugated agarose to pull-down Ras-GTP. The total Ras in cell lysate was also detected. […] Cells were lysed and protein expression was determined by western blot analysis. (F) Cells were induced by 3 μM YC-1 in the presence of indicated inhibitors. Cells were lysed and subjected to EZH2 ubiquitination assay.\nRas-GTP has a high affinity with Ras binding domain of Raf-1 (Raf-RBD). Accordingly, GST fusion protein containing Raf-RBD was applied to detect Ras activation. […]"}},
  "data": [
    {"smiles": "OCc1ccc(-c2nn(Cc3ccccc3)c3ccccc23)o1", "note": "[YC-1, 3-(5′-hydroxymethyl-2′-furyl)-1-benzyl indazole]", "values": [
      {"measurement": "Akt activation", "setting": "Akt", "value": "activated"},
      {"measurement": "sub-G1 population", "setting": "MDA-MB-468 cells; control 5.9%", "value": 13.5, "unit": "%"},
      {"measurement": "percentage of cells at the G1 phase", "setting": "MDA-MB-468 cells; control 57.2%", "value": 64.8, "unit": "%"},
      {"measurement": "Bmi1 protein", "setting": "Bmi1", "value": "decreased"},
      {"measurement": "Ring1B protein", "setting": "Ring1B", "value": "decreased"},
      {"measurement": "Ring1A protein", "setting": "Ring1A", "value": "decreased"},
      {"measurement": "c-Cbl protein expression", "setting": "c-Cbl; 3 μM YC-1", "value": "inhibited"},
      {"measurement": "c-Cbl Tyr731 and Tyr774 phosphorylation", "setting": "c-Cbl; 3 μM YC-1, after 1 h", "value": "rapid phosphorylation"},
      {"measurement": "Ras activation", "setting": "Ras", "value": "could not induce Ras activation"}
    ]}
  ]
}
